How the values were obtained:
COR-L279 = assay: SANGER: Inhibition of human COR-L279 cell growth in a cell viability assay.; assay type: functional, cell-based
DG-75 = assay: cells; assay type: functional, cell-based; conditions: Homo sapiens;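 also: growth inhibition of DG-75 cells, read out with a cell viability assay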
Description: SANGER: Inhibition of human DG-75 cell growth in a cell viability assay.

Daudi = assay: cells; assay type: functional, cell-based; conditions: Homo sapiens;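 also: growth inhibition of Daudi cells, read out by a viability assay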
Description: SANGER: Inhibition of human Daudi cell growth in a cell viability assay.

EB-3 = assay: cells; assay type: functional, cell-based; conditions: Homo sapiens;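 also: human EB-3 cells, growth inhibition read out via a cell viability assay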
Description: SANGER: Inhibition of human EB-3 cell growth in a cell viability assay.

GDM-1 = assay: cells; assay type: functional, cell-based; conditions: Homo sapiens;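 also: cell viability readout used to measure growth inhibition of human GDM-1 cells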
Description: SANGER: Inhibition of human GDM-1 cell growth in a cell viability assay.

HCC1599 = assay: cells; assay type: functional, cell-based; conditions: Homo sapiens;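 also: growth inhibition of HCC1599 cells, read out in a cell viability assay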
Description: SANGER: Inhibition of human HCC1599 cell growth in a cell viability assay.

JIYOYE = assay: cells; assay type: functional, cell-based; conditions: Homo sapiens
Description: SANGER: Inhibition of human JiyoyeP-2003 cell growth in a cell viability assay.

K052 = assay: cells; assay type: functional, cell-based; conditions: Homo sapiens;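 also: Read-out from a cell viability assay, IC50 reflecting suppression of K052 cell growth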
Description: SANGER: Inhibition of human K052 cell growth in a cell viability assay.

KARPAS-422 = assay: cells; assay type: functional, cell-based; conditions: Homo sapiens
Description: SANGER: Inhibition of human KARPAS-422 cell growth in a cell viability assay.

KMS-12-PE = assay: cells; assay type: functional, cell-based; conditions: Homo sapiens;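 also: growth inhibition of human KMS-12-PE cells, measured with a cell viability assay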
Description: SANGER: Inhibition of human KMS-12-PE cell growth in a cell viability assay.

LC-1F = assay: cells; assay type: functional, cell-based; conditions: Homo sapiens;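 also: growth inhibition of human LC-1F cells, read out with a cell viability assay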
Description: SANGER: Inhibition of human LC-1F cell growth in a cell viability assay.

LOUCY = assay: cells; assay type: functional, cell-based; conditions: Homo sapiens;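 also: growth inhibition of human LOUCY cells, read out with a cell viability assay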
Description: SANGER: Inhibition of human LOUCY cell growth in a cell viability assay.

LP-1 = assay: cells; assay type: functional, cell-based; conditions: Homo sapiens;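 also: growth inhibition of human LP-1 cells, with the read-out taken from a cell viability assay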
Description: SANGER: Inhibition of human LP-1 cell growth in a cell viability assay.

LU-165 = assay: cells; assay type: functional, cell-based; conditions: Homo sapiens
Description: SANGER: Inhibition of human LU-165 cell growth in a cell viability assay.

MDA-MB-134-VI = assay: cells; assay type: functional, cell-based; conditions: Homo sapiens
Description: SANGER: Inhibition of human MDA-MB-134-VI cell growth in a cell viability assay.

MHH-CALL-2 = assay: cells; assay type: functional, cell-based; conditions: Homo sapiens;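 also: growth inhibition of the cell line, read out in a cell viability assay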
Description: SANGER: Inhibition of human MHH-CALL-2 cell growth in a cell viability assay.

MONO-MAC-6 = assay: cells; assay type: functional, cell-based; conditions: Homo sapiens;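 also: cell viability assay measuring growth inhibition of human MONO-MAC-6 cells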
Description: SANGER: Inhibition of human MONO-MAC-6 cell growth in a cell viability assay.

NCI-H1417 = assay: cells; assay type: functional, cell-based; conditions: Homo sapiens;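 also: human NCI-H1417 cells, growth inhibition determined with a cell viability readout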
Description: SANGER: Inhibition of human NCI-H1417 cell growth in a cell viability assay.

NCI-H1436 = assay: cells; assay type: functional, cell-based; conditions: Homo sapiens;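 also: growth suppression of human NCI-H1436 cells, determined with a cell viability readout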
Description: SANGER: Inhibition of human NCI-H1436 cell growth in a cell viability assay.

NCI-H1694 = assay: cells; assay type: functional, cell-based; conditions: Homo sapiens;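 also: cell viability assay measuring inhibition of growth in human NCI-H1694 cells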
Description: SANGER: Inhibition of human NCI-H1694 cell growth in a cell viability assay.

NCI-H1703 = assay: cells; assay type: functional, cell-based, Homo sapiens; conditions: Homo sapiens, NCI-H1703;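 also: growth inhibition of NCI-H1703 cells, read out via a cell viability assay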
Description: SANGER: Inhibition of human NCI-H1703 cell growth in a cell viability assay.

NCI-H1882 = assay: cells; assay type: functional, cell-based; conditions: Homo sapiens;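 also: growth inhibition of the cell line, determined with a viability assay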
Description: SANGER: Inhibition of human NCI-H1882 cell growth in a cell viability assay.

NCI-H2009 = assay: cells; assay type: functional, cell-based, Homo sapiens; conditions: Homo sapiens, NCI-H2009;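 also: cell viability assay measuring inhibition of NCI-H2009 cell growth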
Description: SANGER: Inhibition of human NCI-H2009 cell growth in a cell viability assay.

NCI-H2081 = assay: cells; assay type: functional, cell-based; conditions: Homo sapiens;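 also: growth inhibition of human NCI-H2081 cells, read out with a cell viability assay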
Description: SANGER: Inhibition of human NCI-H2081 cell growth in a cell viability assay.

NCI-H2141 = assay: cells; assay type: functional, cell-based; conditions: Homo sapiens;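 also: growth inhibition of human NCI-H2141 cells, read out with a cell viability assay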
Description: SANGER: Inhibition of human NCI-H2141 cell growth in a cell viability assay.

NCI-H2171 = assay: cells; assay type: functional, cell-based; conditions: Homo sapiens;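 also: growth inhibition of human NCI-H2171 cells, read out by a cell viability assay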
Description: SANGER: Inhibition of human NCI-H2171 cell growth in a cell viability assay.

NCI-H719 = assay: cells; assay type: functional, cell-based; conditions: Homo sapiens;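 also: growth inhibition of the cultured cell line, read out with a viability assay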
Description: SANGER: Inhibition of human NCI-H719 cell growth in a cell viability assay.

SNU-16 = assay: cells; assay type: functional, cell-based; conditions: Homo sapiens;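 also: growth inhibition of human SNU-16 cells, determined with a cell viability readout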
Description: SANGER: Inhibition of human NCI-SNU-16 cell growth in a cell viability assay.

P31-FUJ = assay: cells; assay type: functional, cell-based; conditions: Homo sapiens;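 also: growth inhibition of P31-FUJ cells, read out with a viability assay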
Description: SANGER: Inhibition of human P31-FUJ cell growth in a cell viability assay.

RL = assay: cells; assay type: functional, cell-based; conditions: Homo sapiens
Description: SANGER: Inhibition of human RL cell growth in a cell viability assay.

RPMI-6666 = assay: cells; assay type: functional, cell-based; conditions: Homo sapiens
Description: SANGER: Inhibition of human RPMI-6666 cell growth in a cell viability assay.

Raji = assay: cells; assay type: functional, cell-based; conditions: Homo sapiens;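 also: cell viability assay measuring inhibition of Raji cell growth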
Description: SANGER: Inhibition of human Raji cell growth in a cell viability assay.

SCC-3 = assay: cells; assay type: functional, cell-based; conditions: Homo sapiens;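 also: cell viability assay measuring inhibition of SCC-3 cell growth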
Description: SANGER: Inhibition of human SCC-3 cell growth in a cell viability assay.

SCLC-21H = assay: cells; assay type: functional, cell-based; conditions: Homo sapiens;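 also: growth inhibition of cultured human SCLC-21H cells, read out with a cell viability assay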
Description: SANGER: Inhibition of human SCLC-21H cell growth in a cell viability assay.

SJRH30 = assay: cells; assay type: functional, cell-based; conditions: Homo sapiens;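 also: growth inhibition of human SJRH30 cells, read out with a cell viability assay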
Description: SANGER: Inhibition of human SJRH30 cell growth in a cell viability assay.

SK-MM-2 = assay: cells; assay type: functional, cell-based; conditions: Homo sapiens;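 also: growth inhibition of human SK-MM-2 cells, read out with a cell viability assay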
Description: SANGER: Inhibition of human SK-MM-2 cell growth in a cell viability assay.

SU-DHL-1 = assay: SANGER: Inhibition of human SU-DHL-1 cell growth in a cell viability assay.; assay type: functional, cell-based
SUP-T1 = assay: cells; assay type: functional, cell-based; conditions: Homo sapiens;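 also: growth inhibition of human SUP-T1 cells, read out as cell viability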
Description: SANGER: Inhibition of human SUP-T1 cell growth in a cell viability assay.

ARH-77 = assay: cells; assay type: functional, cell-based; conditions: Homo sapiens;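 also: growth inhibition of ARH-77 cells, read out by a cell viability assay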
Description: SANGER: Inhibition of human ARH-77 cell growth in a cell viability assay.

BL-70 = assay: SANGER: Inhibition of human BL-70 cell growth in a cell viability assay.; assay type: functional, cell-based
BOKU = assay: cells; assay type: functional, cell-based; conditions: Homo sapiens;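 also: growth inhibition of the human BOKU cell line, read out by a cell viability assay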
Description: SANGER: Inhibition of human BOKU cell growth in a cell viability assay.

WSU-NHL = assay: cells; assay type: functional, cell-based; conditions: Homo sapiens;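 also: growth inhibition of human WSU-NHL cells, read out with a cell viability assay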
Description: SANGER: Inhibition of human WSU-NHL cell growth in a cell viability assay.

CESS = assay: SANGER: Inhibition of human CESS cell growth in a cell viability assay.; assay type: functional, cell-based

Measured: IC50

C[C@]1(O)C[C@@H](c2nc(-c3ccc4ccc(-c5ccccc5)nc4c3)c3c(N)nccn32)C1 [LINSITINIB]
137 nM: GDM-1
655 nM: SK-MM-2
2260 nM: LP-1
1780 nM: NCI-H2171
508 nM: SJRH30
> 2560 nM: all other assays above

C=CCc1cccc(/C=N/NC(=O)CN2CCN(Cc3ccccc3)CC2)c1O [PAC-1]
1970 nM: BL-70
947 nM: Daudi
1040 nM: RPMI-6666
1100 nM: JIYOYE
1000 nM: SUP-T1
2130 nM: Raji
823 nM: LOUCY
1490 nM: CESS
> 2560 nM: all other assays above

— ChEMBL document CHEMBL1201861, “Genomics of Drug Sensitity in Cancer screening data, Wellcome Trust Sanger Institute”
